According to patent US9238039B2, “Pyrazolo[1,5-A]pyrimidines for antiviral treatment” (Gilead Sciences, Inc., priority 2010, dated 2016):

System: RSV strain A2
Assay: RSV antiviral cytoprotection assay in Hep2 cells (96-well and 384-well format, Cell TiterGlo read-out)
Assay type: cell-based, Respiratory Syncytial Virus (RSV)
Details: human respiratory syncytial virus; for inhibition at 0.5 µM: HEp-2, 0.5 uM; for EC50: HEp-2, RSV-induced cytopathic effects, Hep2 cells, class symbols
[1] = RSV-induced cytopathic effect in Hep2 cells, calculated from fitted dose response curve, normalized to 0% and 100%

Row | Compound | inhibition at 0.5 µM [1] [%] | EC50 [nM] | inhibition at 1 µM (HEp-2, 1 uM, RSV-induced cytopathic effect in Hep2 cells, calculated from fitted dose response curve, normalized to 0% and 100%) [%]
1 | Cc1cn2nc([C@@H]3CCCCN3C(=O)c3cccc4c3OCC4)cc2nc1N1CC[C@H](N)C1 [Compound 317] | 100 | 0.1 to 100 | 
2 | CS(=O)(=O)Nc1ccc(Cl)cc1C(=O)N1CCCC[C@H]1c1cc2nc(N3CC(O)C3)cc(N3CC4(COC4)C3)n2n1 [Compound 58] | 99 | 0.1 to 100 | 
3 | Cc1cc(C2CC2)nc2cc([C@@H]3CCCCN3C(=O)c3cc(F)c(F)cc3NS(C)(=O)=O)nn12 [Compound 117] | 99 | 0.1 to 100 | 
4 | Cc1nc(C(=O)N2CCCC[C@H]2c2cc3nc(N4CC[C@H](N)C4)c(C)cn3n2)cs1 [Compound 288] | 100 | 0.1 to 100 | 
5 | Cc1cc(C)n2ncc(C(=O)N3CCCC[C@H]3c3cc4nc(N5CC[C@H](N)C5)c(C)cn4n3)c2n1 [Compound 394] | 100 | 0.1 to 100 | 
6 | Cc1cn2nc([C@@H]3CCCCN3C(=O)c3cc(Cl)ccc3NC(=O)OC(C)C)cc2nc1N1CC[C@H](N)C1 [Compound 249] | 86 | 0.1 to 100 | 
7 | Cc1cn2nc([C@@H]3CCCCN3C(=O)c3ccc(OC(F)F)cc3)cc2nc1N1CC[C@H](N)C1 [Compound 378] | 48 | 101 to 1000 | 
8 | Cc1cn2nc([C@@H]3CCCCN3C(=O)c3cc(Cl)ccc3NS(C)(=O)=O)cc2nc1N1CCC(c2ccccn2)C1 (stereo partly drawn) [Compound 209] | 88 | 101 to 1000 | 
9 | Cc1cn2nc([C@@H]3CCCCN3C(=O)c3cc4c(s3)CCCC4)cc2nc1N1CC[C@H](N)C1 [Compound 370] | 99 | 0.1 to 100 | 
10 | Cc1cn2nc([C@@H]3CCCCN3C(=O)c3cc(Cl)ccc3NS(C)(=O)=O)cc2nc1N1CCN=C1N [Compound 146] | 99 | 0.1 to 100 | 
11 | Cc1cn2nc([C@@H]3CCCCN3C(=O)c3cc(Cl)ccc3NC(=O)C3CC3)cc2nc1N1CC[C@H](N)C1 [Compound 219] | 100 | 0.1 to 100 | 
12 | Cc1cc(C(=O)N2CCCC[C@H]2c2cc3nc(N4CC[C@H](N)C4)c(C)cn3n2)[nH]n1 [Compound 262] | 100 | 0.1 to 100 | 
13 | CS(=O)(=O)Nc1ccc(Cl)cc1C(=O)N1CCCC[C@H]1c1cc2nc(N3CCC3)cc(N3CCCN3)n2n1 [Compound 145] | 99 | 0.1 to 100 | 
14 | Cc1cn2nc([C@@H]3CCCCN3C(=O)c3ccccc3)cc2nc1N1CC[C@H](N)C1 [Compound 412] | 100 | 0.1 to 100 | 
15 | Cc1cc(N2CC(N)C2)nc2cc([C@@H]3CCCCN3C(=O)c3cc(Cl)ccc3NS(C)(=O)=O)nn12 [Compound 52] | 100 | 0.1 to 100 | 
16 | Cc1cn2nc([C@@H]3CCCCN3C(=O)c3cc(Cl)ccc3NS(C)(=O)=O)cc2nc1N(C)CCO [Compound 150] | 97 | 0.1 to 100 | 
17 | Cc1cn2nc([C@@H]3CCCCN3C(=O)c3cc(N)ccc3NS(C)(=O)=O)cc2nc1N1CC(O)C1 [Compound 192] | 100 | 0.1 to 100 | 
18 | Cc1cn2nc([C@@H]3CCCCN3C(=O)c3cc(Cl)cnc3O)cc2nc1N1CC[C@H](N)C1 [Compound 345] | 100 | 0.1 to 100 | 
19 | Cc1ccc(C(=O)N2CCCC[C@H]2c2cc3nc(N4CC[C@H](N)C4)c(C)cn3n2)c(F)c1 [Compound 298] | 21 | 101 to 1000 | 
20 | CS(=O)(=O)Nc1ccc(Cl)cc1C(=O)N1CCCC[C@H]1c1cc2nc(N3CCC3)cc(N3CCOCC3)n2n1 [Compound 67] | 100 | 0.1 to 100 | 
21 | Cc1cn2nc([C@@H]3CCCCN3C(=O)c3cccc4nnnn34)cc2nc1N1CC[C@H](N)C1 [Compound 316] | 100 | 0.1 to 100 | 
22 | Cc1cn2nc([C@@H]3CCCCN3C(=O)c3ccco3)cc2nc1N1CC[C@H](N)C1 [Compound 258] | 100 | 0.1 to 100 | 
23 | COc1ccc(NS(C)(=O)=O)c(C(=O)N2CCCC[C@H]2c2cc3[nH]c(C)c(C)c(=O)n3n2)c1 [Compound 10] | 94 | 0.1 to 100 | 99
24 | Cc1ccc(C(=O)N2CCCC[C@H]2c2cc3nc(N4CC[C@H](N)C4)c(C)cn3n2)cc1O [Compound 294] | 14 | 1000 to 10000 | 
25 | Cc1cn2nc([C@@H]3CCCCN3C(=O)c3ccc4ccn(C)c4c3)cc2nc1N1CC[C@H](N)C1 [Compound 350] | 83.6 | 101 to 1000 | 
26 | Cc1cccc(C(=O)N2CCCC[C@H]2c2cc3nc(N4CC[C@H](N)C4)c(C)cn3n2)n1 [Compound 273] | 100 | 0.1 to 100 | 
27 | Cc1cn2nc([C@@H]3CCCCN3C(=O)c3c(F)ccc(F)c3F)cc2nc1N1CC[C@H](N)C1 [Compound 353] | 100 | 0.1 to 100 | 
28 | Cc1cc(C(=O)N2CCCC[C@H]2c2cc3nc(N4CC[C@H](N)C4)c(C)cn3n2)on1 [Compound 266] | 100 | 0.1 to 100 | 
